18 compounds from US9802899B2, “Heterocyclic compounds as pesticides” (BAYER CROPSCIENCE AG, priority 2012, dated 2017) can be followed below.

Data set [1] can be described thus: Determination of the log P values by HPLC (formic acid method). In kind it is physicochemical. The following applies: reversed-phase column (C 18), acidic range (pH 3.4), 55° C.; for chromatographic logP: reversed-phase HPLC column (C 18). As for the experimental part: 1) Description of Method for Determination of the Log P Values (Formic Acid Method)
Eluents for determination in the acidic range (pH 3.4):
Eluent A: acetonitrile+1 ml of formic acid/liter. Eluent B: water+0.9 ml of formic acid/liter.
The lambda max values were determined in the maxima of the chromatographic signals using the UV spectra from 200 nm to 400 nm.

Data set [2] has as its system Spodoptera frugiperda. Briefly: Spodoptera frugiperda spray test (SPODFR). It counts as in vivo. As to conditions: caterpillars on maize leaf discs, after 7 days. As for the experimental part:
Spodoptera frugiperda Spray Test (SPODFR)
(§1) Solvents: 78.0 parts by weight of acetone • • 1.5 parts by weight of dimethylformamide
(§2) Emulsifier: 0.5 part by weight of alkylaryl polyglycol ether
(§3) To produce a suitable preparation of active compound, 1 part by weight of active compound is mixed with the stated amounts of solvents and emulsifier, and the concentrate is diluted with emulsifier-containing water to the desired concentration.
Leaf discs of maize (Zea mays) are sprayed with an active compound formulation of the desired concentration and, after drying, populated with caterpillars of the armyworm (Spodoptera frugiperda).
After 7 days, the efficacy in % is determined. 100% means that all of the caterpillars have been killed; 0% means that none of the caterpillars have been killed.

The subject of data set [3] is Myzus persicae. Briefly: Myzus persicae spray test (MYZUPE). It counts as in vivo. The following applies: application rate 500 g/ha; Chinese cabbage leaf discs; after 6 days. On the procedure:
Myzus persicae Spray Test (MYZUPE)
Solvents: 78 parts by weight of acetone • • 1.5 parts by weight of dimethylformamide
as §2, §3
Discs of Chinese cabbage leaves (Brassica pekinensis) infested by all stages of the green peach aphid (Myzus persicae) are sprayed with an active compound preparation of the desired concentration.
After 6 days, the efficacy in % is determined 100% here means that all of the aphids have been killed; 0% means that no aphids have been killed.

For data set [4], the system named is Cooperia curticei. Briefly: Cooperia curticei test (COOPCU). In kind it is in vivo. As to conditions: nematode larvae, after 5 days. As for the experimental part: Cooperia curticei Test (COOPCU)
(§4) Solvent: dimethyl sulphoxide
(§5) To produce a suitable preparation of active compound, 10 mg of active compound are mixed with 0.5 ml of dimethyl sulphoxide, and the concentrate is diluted with Ringer solution to the desired concentration.
Vessels containing the active compound preparation of the desired concentration are populated with about 40 nematode larvae (Cooperia curticei).
(§6) After 5 days, the kill in % is determined 100% means that all of the larvae have been killed; 0% means that none of the larvae have been killed.

Data set [5] relates to Lucilia cuprina larvae. Briefly: Lucilia cuprina test (LUCICU). In kind it is in vivo. As to conditions: application rate 100 ppm; larvae on treated horse meat; after 2 days. On the procedure:
Lucilia cuprina Test (LUCICU)
as §4
To produce a suitable preparation of active compound, 10 mg of active compound are mixed with 0.5 ml of dimethyl sulphoxide, and the concentrate is diluted with water to the desired concentration.
Vessels containing horse meat treated with the active compound preparation of the desired concentration are populated with about 20 Lucilia cuprina larvae.
After 2 days, the kill in % is determined 100% means that all of the larvae have been killed; 0% means that none of the larvae have been killed.

For data set [6], the system named is Phaedon cochleariae. Briefly: Phaedon cochleariae spray test (PHAECO). As to conditions: foliar, 168 h, application rate 500 g/ha, larvae on Chinese cabbage leaf discs, after 7 days, read-out: efficacy. It counts as in vivo. On the procedure: Phaedon cochleariae Spray Test (PHAECO)
as §1, §2, §3
After 7 days, the efficacy in % is determined. 100% means that all of the beetle larvae have been killed; 0% means that none of the beetle larvae have been killed.

For data set [7], the system named is Ctenocephalides felis. Briefly: Ctenocephalides felis oral test (CTECFE). It counts as in vivo. The following applies: application rate 100 ppm in citrated cattle blood; adult fleas; after 2 days. On the procedure: Ctenocephalides felis—Oral Test (CTECFE)
Solvent: 1 part by weight of dimethyl sulphoxide
To produce a suitable preparation of active compound, 10 mg of active compound are mixed with 0.5 ml of dimethyl sulphoxide. A portion of the concentrate is diluted with citrated cattle blood, and the desired concentration is prepared.
About 20 unfed adult fleas (Ctenocephalides felis) are placed into a chamber which is closed at the top and bottom with gauze. A metal cylinder whose bottom end is closed with a parafilm is placed onto the chamber. The cylinder contains the blood/active compound preparation, which can be imbibed by the fleas through the Parafilm membrane.
After 2 days, the kill in % is determined 100% means that all fleas have been killed; 0% means that none of the fleas have been killed.

Data set [8] relates to Haemonchus contortus. Briefly: Haemonchus contortus test (HAEMCO). It counts as in vivo. The following applies: application rate 4 ppm; larvae; after 5 days. On the procedure:
Haemonchus contortus Test (HAEMCO)
as §4, §5
Vessels containing the active compound preparation of the desired concentration are populated with about 40 larvae of the red stomach worm (Haemonchus contortus).
as §6

For the compound `O=C(Nc1nn(-c2ccccc2Cl)cc1Cl)c1ccccc1I` [Compound I-1-34], in data set [1], the log P (in general, the decadic logarithm of the partition coefficient of the neutral form, usually between octanol and water) came to 3.10. Also, the efficacy in data set [2] (application rate 500 g/ha) was 83%.

`O=C(Nc1ccn(-c2cccc(F)c2F)n1)c1ccccc1Br` [Compound I-1-63, 2-Bromo-N-[1-(2,3-difluorophenyl)-1H-pyrazol-3-yl]benzamide]: the efficacy in data set [3] is given as 90%. The pest or weed control at 20 ppm in data set [4] (Cooperia curticei, 120 h, application rate 20 ppm, read-out: efficacy (kill)) was determined as 90%. For the same compound, the chromatographic logP (commonly lipophilicity estimated from chromatographic retention) in data set [1] came out at 2.97. Moreover, the “efficacy (kill)” value in data set [5] came out at 80%. Further, the pest or weed control at 500 g/ha in data set [6] is 100%.

For `O=C(Nc1ccn(-c2ncccc2F)n1)c1ccccc1I` [Compound I-1-131], the “efficacy (kill)” value in data set [7] is on record as 90%. In data set [1], the log partition coefficient (log P) is on record as 2.22.

In the case of `Cc1cc(NC(=O)c2ccccc2I)nn1-c1ccccc1Cl` [Compound I-1-35], the “log P” value in data set [1] is given as 2.53. The same compound registered an efficacy in data set [2] (application rate 500 g/ha) of 100%.

On to `O=C(Nc1cnn(-c2ncccc2F)n1)c1ccccc1I` [Compound I-2-51], for which the “efficacy (kill)” value in data set [8] worked out at 80%. Further, in data set [1], the “log P” value was 2.14.

As to `O=C(Nc1ccn(-c2cc(F)ccc2F)n1)c1sccc1I` [Compound I-1-221], the “efficacy (kill)” value in data set [4] (application rate 4 ppm) and in data set [8] was 90% in each case. Also, the “log P” value in data set [1] came out at 3.57.

`O=C(Nc1nn(-c2ccccc2Cl)cc1Br)c1ccccc1Cl` [Compound I-1-29]: the “log P” value in data set [1] came to 2.99. Moreover, the efficacy in data set [2] (application rate 500 g/ha) is recorded as 83%.

Take `O=C(Nc1ccn(-c2ncccc2Cl)n1)c1ccccc1Cl` [Compound I-1-136]: the “log P” value in data set [1] worked out at 2.21. Also, the efficacy in data set [2] (application rate 500 g/ha) worked out at 100%.

Turning to `O=C(Nc1ccn(-c2cc(Cl)ccc2Cl)n1)c1ccccc1Cl` [Compound I-1-118], the “log P” value in data set [1] came out at 3.36. The same compound returned an efficacy in data set [2] (application rate 100 g/ha) of 83%.

For `O=C(Nc1cnn(-c2c(F)cccc2F)n1)c1ccccc1I` [Compound I-2-41], the log partition coefficient (log P) in data set [1] is 2.81. In addition, in data set [2] (application rate 500 g/ha), the efficacy was found to be 100%.

Turning to `O=C(Nc1ccn(-c2ncccc2F)n1)c1ccccc1C(F)(F)F` [Compound I-1-128], the “efficacy (kill)” value in data set [7] came to 85%. Further, the log partition coefficient (log P) in data set [1] turned out to be 2.24.

For the compound `O=C(Nc1ccn(-c2cncc(F)n2)n1)c1c(F)cccc1F` [Compound I-1-403], the “log P” value in data set [1] is listed as 2.32. Further, the efficacy in data set [2] (application rate 500 g/ha) turned out to be 100%.

With `O=C(Nc1ccn(-c2ncc(F)cc2F)n1)c1ccccc1I` [Compound I-1-145], the efficacy in data set [3] is given as 90%. Besides, the “log P” value in data set [1] was 2.45. Also, the “efficacy (kill)” value in data set [5] amounted to 90%.

For `O=C(Nc1cnn(-c2ncccc2Cl)n1)c1ccccc1C(F)(F)F` [Compound I-2-10], the “efficacy (kill)” value in data set [7] is 90%. Also, the “log P” value in data set [1] worked out at 2.38.

Take `N#CCN(C(=O)c1ccccc1C(F)(F)F)c1ccn(-c2c(F)cccc2F)n1` [Compound I-1-259]: in data set [1], the “log P” value amounted to 2.90. This compound also displayed an efficacy in data set [2] (application rate 500 g/ha) of 100%.

On to `O=C(Nc1cnn(-c2ncccc2F)n1)c1c(F)cccc1C(F)(F)F` [Compound I-2-49], for which the “efficacy (kill)” value in data set [8] worked out at 90%. Further, the lipophilicity (log P) in data set [1] amounted to 2.26.

`O=C(Nc1nn(-c2ccccc2Cl)cc1I)c1ccccc1C(F)(F)F` [Compound I-1-17, N-[4-Iodo-1-(2-chlorophenyl)-1H-pyrazol-3-yl]-2-(trifluoromethyl)benzamide] showed a chromatographic logP in data set [1] of 3.16. Further, in data set [2] (application rate 500 g/ha), the efficacy worked out at 83%. Besides, the pest or weed control at 500 g/ha in data set [6] amounted to 100%.

In data set [3], `N#CCN(C(=O)c1ccccc1Cl)c1ccn(-c2ccccc2Cl)n1` [Compound I-1-25] showed an efficacy of 80%. In data set [1], the “log P” value is given as 3.04.
